Consider 24 molecules from the Kinase Knowledgebase extract (Sharma et al. 2016).

SMILES strings stand for the structures.

One assay addresses PIK3CD (Human) (UniProt O00329). The assay can be described thus: Assessment of PIK3CD Kinase Activity.
The target in a further assay is PIK3CG (human) (UniProt P48736). The assay can be described thus: Assessment of PIK3CG Kinase Activity.
In another assay the target is PIK3CB (Human) (UniProt P42338). The assay can be described thus: Assessment of PIK3CB Kinase Activity.
Sequence of PIK3CB (Human) (P42338 whole entry, looked up): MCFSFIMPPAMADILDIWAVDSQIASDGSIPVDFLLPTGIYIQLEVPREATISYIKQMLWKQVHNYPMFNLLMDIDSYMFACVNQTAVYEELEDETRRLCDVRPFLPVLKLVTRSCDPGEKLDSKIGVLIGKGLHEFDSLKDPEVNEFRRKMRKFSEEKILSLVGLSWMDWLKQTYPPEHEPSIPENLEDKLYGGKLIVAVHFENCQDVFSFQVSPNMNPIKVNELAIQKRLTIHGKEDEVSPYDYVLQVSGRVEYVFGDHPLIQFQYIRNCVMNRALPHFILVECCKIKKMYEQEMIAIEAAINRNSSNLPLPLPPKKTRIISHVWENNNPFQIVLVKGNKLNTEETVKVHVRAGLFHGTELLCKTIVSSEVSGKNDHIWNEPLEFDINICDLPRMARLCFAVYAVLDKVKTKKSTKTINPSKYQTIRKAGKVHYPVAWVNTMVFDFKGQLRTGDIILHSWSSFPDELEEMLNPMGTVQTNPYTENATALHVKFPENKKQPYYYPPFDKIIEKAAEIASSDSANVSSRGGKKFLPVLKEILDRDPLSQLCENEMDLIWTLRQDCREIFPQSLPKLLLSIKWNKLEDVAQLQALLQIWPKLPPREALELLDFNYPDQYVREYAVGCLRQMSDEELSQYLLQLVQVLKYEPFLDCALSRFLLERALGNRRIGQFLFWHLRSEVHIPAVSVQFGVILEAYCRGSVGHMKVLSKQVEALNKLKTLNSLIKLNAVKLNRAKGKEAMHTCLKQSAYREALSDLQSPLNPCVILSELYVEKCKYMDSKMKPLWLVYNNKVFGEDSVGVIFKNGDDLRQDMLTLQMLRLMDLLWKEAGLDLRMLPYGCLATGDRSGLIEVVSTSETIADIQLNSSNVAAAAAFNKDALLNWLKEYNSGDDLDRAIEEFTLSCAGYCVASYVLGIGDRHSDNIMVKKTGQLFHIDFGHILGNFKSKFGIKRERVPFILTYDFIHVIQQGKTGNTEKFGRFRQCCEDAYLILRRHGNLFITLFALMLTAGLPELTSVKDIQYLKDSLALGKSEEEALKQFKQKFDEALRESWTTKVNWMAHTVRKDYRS
The target of a further assay is PIK3CA (human) (UniProt P42336). The assay can be described thus: Assessment of PIK3CA Kinase Activity.
Sequence of PIK3CA (human) (P42336 whole entry, looked up): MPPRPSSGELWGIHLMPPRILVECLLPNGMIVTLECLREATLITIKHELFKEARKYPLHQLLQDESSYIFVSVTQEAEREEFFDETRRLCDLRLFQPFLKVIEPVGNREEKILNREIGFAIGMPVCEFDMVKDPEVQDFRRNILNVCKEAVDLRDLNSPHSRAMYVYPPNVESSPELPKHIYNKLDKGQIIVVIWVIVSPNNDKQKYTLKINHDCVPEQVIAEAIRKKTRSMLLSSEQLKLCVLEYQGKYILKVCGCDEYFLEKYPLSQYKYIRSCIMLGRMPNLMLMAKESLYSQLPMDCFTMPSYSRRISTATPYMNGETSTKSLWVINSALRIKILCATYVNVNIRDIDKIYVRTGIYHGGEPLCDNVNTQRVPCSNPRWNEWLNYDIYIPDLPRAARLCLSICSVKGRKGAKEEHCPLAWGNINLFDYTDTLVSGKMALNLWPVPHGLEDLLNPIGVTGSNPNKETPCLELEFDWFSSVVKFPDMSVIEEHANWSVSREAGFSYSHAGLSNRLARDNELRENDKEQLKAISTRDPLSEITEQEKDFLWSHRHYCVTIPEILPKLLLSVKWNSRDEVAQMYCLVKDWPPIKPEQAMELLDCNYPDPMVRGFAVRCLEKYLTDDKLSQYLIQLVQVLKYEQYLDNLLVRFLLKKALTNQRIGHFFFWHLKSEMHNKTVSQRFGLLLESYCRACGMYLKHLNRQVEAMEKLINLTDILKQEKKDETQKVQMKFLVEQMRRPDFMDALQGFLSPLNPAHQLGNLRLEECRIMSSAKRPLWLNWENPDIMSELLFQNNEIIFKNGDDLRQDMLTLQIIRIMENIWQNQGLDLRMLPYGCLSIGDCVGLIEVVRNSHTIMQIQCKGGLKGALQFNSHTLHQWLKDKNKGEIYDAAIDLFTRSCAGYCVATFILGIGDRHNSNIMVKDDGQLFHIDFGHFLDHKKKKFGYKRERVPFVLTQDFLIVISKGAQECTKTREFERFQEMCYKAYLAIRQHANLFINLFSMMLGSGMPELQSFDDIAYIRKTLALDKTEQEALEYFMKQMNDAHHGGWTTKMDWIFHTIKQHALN

Sequence of PIK3CD (Human) (O00329 whole entry, looked up): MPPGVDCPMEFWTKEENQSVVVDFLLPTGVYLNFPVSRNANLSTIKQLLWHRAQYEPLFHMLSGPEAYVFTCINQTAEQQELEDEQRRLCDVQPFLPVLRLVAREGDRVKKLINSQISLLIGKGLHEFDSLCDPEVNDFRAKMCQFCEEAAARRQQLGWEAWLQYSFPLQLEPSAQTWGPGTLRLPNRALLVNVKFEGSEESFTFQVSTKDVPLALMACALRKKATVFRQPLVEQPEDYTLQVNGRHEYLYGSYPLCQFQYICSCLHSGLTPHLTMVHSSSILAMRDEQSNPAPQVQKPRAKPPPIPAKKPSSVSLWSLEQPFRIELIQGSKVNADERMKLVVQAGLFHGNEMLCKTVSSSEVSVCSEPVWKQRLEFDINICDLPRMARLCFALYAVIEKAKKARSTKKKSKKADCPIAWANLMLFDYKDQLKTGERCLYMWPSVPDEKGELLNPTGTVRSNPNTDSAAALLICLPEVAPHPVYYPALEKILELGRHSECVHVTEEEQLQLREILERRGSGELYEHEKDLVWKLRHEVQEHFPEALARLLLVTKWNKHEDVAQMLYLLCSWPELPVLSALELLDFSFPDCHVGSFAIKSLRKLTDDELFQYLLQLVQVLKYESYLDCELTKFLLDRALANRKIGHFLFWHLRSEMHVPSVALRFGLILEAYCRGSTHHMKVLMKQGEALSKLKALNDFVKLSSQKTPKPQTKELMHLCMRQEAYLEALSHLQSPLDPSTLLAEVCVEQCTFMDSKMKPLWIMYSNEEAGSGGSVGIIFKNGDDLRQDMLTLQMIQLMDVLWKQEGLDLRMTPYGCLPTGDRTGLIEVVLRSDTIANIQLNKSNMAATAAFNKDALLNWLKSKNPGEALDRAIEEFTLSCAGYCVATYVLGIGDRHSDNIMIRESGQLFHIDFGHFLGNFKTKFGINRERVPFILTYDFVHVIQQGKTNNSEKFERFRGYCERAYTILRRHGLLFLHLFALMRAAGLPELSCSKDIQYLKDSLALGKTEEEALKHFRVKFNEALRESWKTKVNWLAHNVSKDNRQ
Sequence of PIK3CG (human) (P48736 whole entry, looked up): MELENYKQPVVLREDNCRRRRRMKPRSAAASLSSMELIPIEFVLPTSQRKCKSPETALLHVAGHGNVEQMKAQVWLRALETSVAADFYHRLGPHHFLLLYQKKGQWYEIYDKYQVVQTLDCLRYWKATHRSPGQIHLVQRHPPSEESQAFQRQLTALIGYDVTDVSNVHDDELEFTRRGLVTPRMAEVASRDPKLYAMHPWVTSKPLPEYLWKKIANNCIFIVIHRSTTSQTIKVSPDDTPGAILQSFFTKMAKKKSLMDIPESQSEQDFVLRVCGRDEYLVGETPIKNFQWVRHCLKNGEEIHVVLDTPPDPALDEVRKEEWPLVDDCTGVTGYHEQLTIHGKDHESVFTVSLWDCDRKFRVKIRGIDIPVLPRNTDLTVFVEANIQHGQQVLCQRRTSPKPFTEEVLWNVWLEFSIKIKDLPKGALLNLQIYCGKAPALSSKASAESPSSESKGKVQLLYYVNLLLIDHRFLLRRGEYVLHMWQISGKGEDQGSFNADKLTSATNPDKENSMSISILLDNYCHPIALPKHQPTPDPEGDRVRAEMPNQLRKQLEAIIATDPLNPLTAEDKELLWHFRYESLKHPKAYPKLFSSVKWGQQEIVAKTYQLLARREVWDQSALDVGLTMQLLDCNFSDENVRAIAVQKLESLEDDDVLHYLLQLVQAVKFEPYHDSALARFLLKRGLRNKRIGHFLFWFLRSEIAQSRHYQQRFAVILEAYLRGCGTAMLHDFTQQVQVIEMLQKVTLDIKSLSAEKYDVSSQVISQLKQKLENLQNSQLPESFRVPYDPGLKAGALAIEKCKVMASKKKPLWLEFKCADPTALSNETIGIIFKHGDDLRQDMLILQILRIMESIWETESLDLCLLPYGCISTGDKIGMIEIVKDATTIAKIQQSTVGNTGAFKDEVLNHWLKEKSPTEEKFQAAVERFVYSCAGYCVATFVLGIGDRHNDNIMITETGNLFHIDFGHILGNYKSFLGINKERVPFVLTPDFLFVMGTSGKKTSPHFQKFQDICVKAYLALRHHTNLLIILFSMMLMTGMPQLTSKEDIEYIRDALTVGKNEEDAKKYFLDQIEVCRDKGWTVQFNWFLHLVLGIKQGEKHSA

Broadly, the IC50 is the midpoint of a concentration-inhibition curve. Low readings indicate higher potency, high ones lower potency. With `COc1cc(-c2cccc3cc([C@H](C)Nc4nc(N)ncc4-c4ccncc4)n(-c4ccccc4)c(=O)c23)ccn1`, the values for the 50% inhibitory concentration (IC50) at PIK3CD (Human), against PIK3CG (human) and at PIK3CB (Human) were less than 100 nM, less than 100 nM and greater than 10000 nM, respectively.

For `C[C@H](Nc1nc(N)ncc1C#N)c1cc2cccc(Cl)c2c(=O)n1-c1ccccc1`, the IC50 against PIK3CD (Human), against PIK3CG (human) and against PIK3CB (Human) was less than 100 nM throughout.

For the molecule `Cc1nc(-c2cnc(N)nc2N[C@@H](C)c2cc3cccc(Cl)c3c(=O)n2-c2ccccc2)sc1C`, the figures for the 50% inhibitory concentration (IC50) against PIK3CD (Human), against PIK3CG (human) and against PIK3CA (human) were 100 to 1000 nM, 100 to 1000 nM and greater than 10000 nM, respectively.

`Cc1csc(-c2cnc(N)nc2N[C@@H](C)c2cc3cccc(Cl)c3c(=O)n2-c2ccccc2)n1`: the IC50 against PIK3CD (Human) is less than 100 nM; on PIK3CG (human) it was less than 100 nM; on PIK3CB (Human), 100 to 1000 nM.

Regarding `COc1cc(-c2cccc3cc([C@H](C)Nc4nc(N)ncc4C#N)n(-c4ccccc4)c(=O)c23)cnc1OC`, the IC50 on PIK3CD (Human), against PIK3CG (human) and against PIK3CA (human) was less than 100 nM in each case.

Regarding `CC#Cc1cccc2cc([C@H](C)Nc3nc(N)ncc3C#N)n(-c3ccccc3)c(=O)c12`, the concentration for half-maximal inhibition (IC50) at PIK3CD (Human) is less than 100 nM; against PIK3CG (human) it was less than 100 nM; on PIK3CB (Human), 100 to 1000 nM.

Turning to `CCOc1cc(-c2cccc3cc([C@H](C)Nc4nc(N)ncc4C#N)n(-c4ccccc4)c(=O)c23)ccn1`, the values for the IC50 against PIK3CD (Human), at PIK3CG (human) and against PIK3CA (human) were less than 100 nM, less than 100 nM and 100 to 1000 nM, respectively.

`C[C@H](Nc1nc(N)ncc1C#N)c1cc2cccc(Cl)c2c(=O)n1-c1c(F)cc(F)cc1F`: the half-maximal inhibitory concentration (IC50) is 100 to 1000 nM against PIK3CD (Human), less than 100 nM on PIK3CG (human) and greater than 10000 nM at PIK3CA (human).

In the case of `Cc1cncc(-c2cccc3cc([C@H](C)Nc4nc(N)ncc4C#N)n(-c4cccc(F)c4)c(=O)c23)c1`, the IC50 against PIK3CD (Human) is less than 100 nM; against PIK3CG (human), less than 100 nM; against PIK3CA (human) it was 100 to 1000 nM.

For the molecule `COc1cc(-c2cccc3cc([C@H](C)Nc4nc(N)ncc4-c4cnc(C)s4)n(-c4ccccc4)c(=O)c23)ccn1`, the IC50 against PIK3CD (Human) is less than 100 nM; against PIK3CG (human), less than 100 nM; at PIK3CA (human), 100 to 1000 nM.

Consider `C[C@H](Nc1nc(N)ncc1C#N)c1cc2cccc(-c3ccc(=O)n(C4CCOCC4)c3)c2c(=O)n1-c1ccccc1`, for which the results for the IC50 at PIK3CD (Human), against PIK3CG (human) and against PIK3CA (human) were less than 100 nM, less than 100 nM and 100 to 1000 nM, respectively.

Turning to `C[C@H](Nc1nc(N)ncc1C#N)c1cc2cccc(-c3cncc(N(C)S(C)(=O)=O)c3)c2c(=O)n1-c1ccccc1`, the results for the 50% inhibitory concentration (IC50) against PIK3CD (Human), at PIK3CG (human) and against PIK3CA (human) were less than 100 nM, less than 100 nM and 100 to 1000 nM, respectively.

Consider `C[C@H](Nc1nc(N)ncc1C#N)c1cc2cccc(O)c2c(=O)n1-c1ccccc1`, for which the IC50 is less than 100 nM against PIK3CD (Human), less than 100 nM at PIK3CG (human) and greater than 10000 nM on PIK3CA (human).

For `C[C@H](Nc1nc(N)ncc1C#N)c1cc2cccc(Cl)c2c(=O)n1-c1ccc2c(c1)OCO2`, the IC50 against PIK3CD (Human) is 100 to 1000 nM; against PIK3CG (human), less than 100 nM; on PIK3CA (human), greater than 10000 nM.

On to `Cc1cnc(-c2cnc(N)nc2N[C@@H](C)c2cc3cccc(Cl)c3c(=O)n2-c2ccccc2)s1`, for which the values for the IC50 at PIK3CD (Human), at PIK3CG (human) and at PIK3CA (human) were 100 to 1000 nM, less than 100 nM and greater than 10000 nM, respectively.

Turning to `C[C@H](Nc1nc(N)ncc1-c1ccsc1)c1cc2cccc(Cl)c2c(=O)n1-c1ccccc1`, the 50% inhibitory concentration (IC50) against PIK3CD (Human) is less than 100 nM; on PIK3CG (human) it was less than 100 nM; against PIK3CA (human), greater than 10000 nM.

On to `COc1cncc(-c2cccc3cc([C@H](C)Nc4nc(N)ncc4C(N)=O)n(-c4ccccc4)c(=O)c23)c1`, for which the IC50 was less than 100 nM at PIK3CD (Human), less than 100 nM on PIK3CG (human) and 100 to 1000 nM at PIK3CA (human).

Turning to `C[C@H](Nc1nc(N)ncc1-c1cnn(C)c1)c1cc2cccc(Cl)c2c(=O)n1-c1ccccc1`, the figures for the IC50 at PIK3CD (Human), at PIK3CG (human) and at PIK3CA (human) were 100 to 1000 nM, less than 100 nM and greater than 10000 nM, respectively.

With `Cc1cccc2cc([C@H](C)Nc3nc(N)ncc3C(F)(F)F)n(-c3cccc(F)c3)c(=O)c12`, the results for the 50% inhibitory concentration (IC50) on PIK3CD (Human), at PIK3CG (human) and at PIK3CA (human) were less than 100 nM, less than 100 nM and greater than 10000 nM, respectively.

Take `C[C@H](Nc1nc(N)ncc1C#N)c1cc2cccc(-c3ccnnc3)c2c(=O)n1-c1cccc(F)c1`: the IC50 was less than 100 nM at PIK3CD (Human), 100 to 1000 nM on PIK3CG (human) and greater than 10000 nM on PIK3CA (human).

With `COc1cncc(-c2cccc3nc([C@H](C)Nc4nc(N)ncc4C#N)n(-c4ccccc4)c(=O)c23)c1`, the half-inhibitory concentration (IC50) against PIK3CD (Human) is less than 100 nM; against PIK3CG (human) it was less than 100 nM; against PIK3CA (human), 100 to 1000 nM.

`COc1cc(-c2cccc3cc([C@H](C)N)n(-c4ccccc4)c(=O)c23)cnc1C` returned an IC50 against PIK3CB (Human) of 100 to 1000 nM.

For `Cc1ccc(-n2c([C@H](C)Nc3nc(N)ncc3C#N)cc3cccc(Cl)c3c2=O)cc1`, the half-inhibitory concentration (IC50) at PIK3CD (Human) was less than 100 nM; against PIK3CG (human), less than 100 nM; against PIK3CA (human), greater than 10000 nM.

With `C[C@H](Nc1nc(N)ncc1-c1ccc(O)cc1)c1cc2cccc(Cl)c2c(=O)n1-c1ccccc1`, the IC50 was 100 to 1000 nM against PIK3CD (Human), less than 100 nM on PIK3CG (human) and greater than 10000 nM at PIK3CA (human).
